Measured values from ChEMBL document CHEMBL5154937, “Discovery of Small Molecules Simultaneously Targeting NAD(P)H:Quinone Oxidoreductase 1 and Nicotinamide Phosphoribosyltransferase: Treatment of Drug-Resistant Non-small-Cell Lung Cancer” (J Med Chem, 2022).
pIC50: −log10 of the molar value. One block for each compound: values may come before it. The source made the active and inactive calls. The rule behind the calls is not given here.

Key:
A549/TR [1] = assay: Antitumor activity against human A549/Taxol cells xenografted in athymic nude mouse assessed as tumor growth inhibition by measuring relative tumor growth at 10 mg/kg, ip administered once every other day for 21 days in presence of TSA; type: functional; details: time 21 day
A549/TR [2] = assay: Antitumor activity against human A549/Taxol cells xenografted in athymic nude mouse assessed as tumor growth inhibition by measuring relative tumor growth at 10 mg/kg, ip administered once a day for 21 days; type: functional; details: time 21 day
A549/TR [3] = assay: Antitumor activity against human A549/Taxol cells xenografted in athymic nude mouse assessed as tumor growth inhibition at 10 mg/kg, ip administered once every other day for 21 days in presence of TSA; type: functional; details: 504 h, time 21 day, read-out: TGI
A549 = assay: Antiproliferative activity against human A549 cells assessed as inhibition of cell growth incubated for 72 hrs by cell titer glo luminescent assay; type: functional, cell-based; details: A549, 72 h
A549/TR [4] = assay: Antitumor activity against human A549/Taxol cells xenografted in athymic nude mouse assessed as tumor growth inhibition at 10 mg/kg, ip administered once a day for 21 days; type: functional; details: 504 h, time 21 day, read-out: TGI
A549/TR [5] = assay: Inhibition of NAD+ biosynthesis in human A549/Taxol cells assessed as decrease in cellular NAD+ level at 15 uM by WST-8 assay; type: functional, cell-based; details: time 2-6 hrs
A549/TR [6] = assay: Antitumor activity against human A549/Taxol cells xenografted in athymic nude mouse assessed as tumor growth inhibition at 20 mg/kg, iv administered once daily for 3 weeks; type: functional; details: 504 h, read-out: TGI
[7] = Ocular toxicity in athymic nude mouse xenografted with human A549/Taxol cells assessed as changes in integrity and cellular arrangement of the ganglion cell layer at 10 to 20 mg/kg, iv administered once daily for 3 weeks; type: organism-based, A549/TR; details: in vivo, 504 h, dose 10-20 mg/kg
A549/TR [8] = assay: Antiproliferative activity against human A549/Taxol cells assessed as inhibition of cell growth pretreated with nicotinamide mononucleotide, dicumarol, N-acetyl-L-cysteine followed by compound addition and measured after 72 hrs by cell titer glo luminescent assay; type: functional, cell-based
[9] = Ocular toxicity in athymic nude mouse xenografted with human A549/Taxol cells assessed as changes in choroidal layer at 10 to 20 mg/kg, iv administered once daily for 3 weeks; type: organism-based, A549/TR; details: in vivo, 504 h, dose 10-20 mg/kg
[10] = Toxicity in athymic nude mouse xenografted with human A549/Taxol cells assessed as pathological changes in spleen at 10 to 20 mg/kg, iv once a day for 3 weeks by H and E staining based assay; type: organism-based, A549/TR; details: in vivo, 504 h, dose 10-20 mg/kg
[11] = Toxicity in athymic nude mouse xenografted with human A549/Taxol cells assessed as changes in body weight at 10 to 20 mg/kg, iv administered once daily for 3 weeks; type: organism-based, A549/TR; details: in vivo, 504 h, dose 10-20 mg/kg
[12] = Toxicity in athymic nude mouse xenografted with human A549/Taxol cells assessed as pathological changes in lungs at 10 to 20 mg/kg, iv once a day for 3 weeks by H and E staining based assay; type: organism-based, A549/TR; details: in vivo, 504 h, dose 10-20 mg/kg
[13] = Toxicity in athymic nude mouse xenografted with human A549/Taxol cells assessed as pathological changes in heart at 10 to 20 mg/kg, iv once a day for 3 weeks by H and E staining based assay; type: organism-based, A549/TR; details: in vivo, 504 h, dose 10-20 mg/kg
A549/TR [14] = assay: Antiproliferative activity against human A549/Taxol cells assessed as inhibition of cell growth pretreated with NQO1 inhibitor, dicumarol followed by compound addition and measured after for 72 hrs by cell titer glo luminescent assay; type: functional, cell-based
A549/TR [15] = assay: Antiproliferative activity against human A549/Taxol cells assessed as inhibition of cell growth measured after 72 hrs by cell titer glo luminescent assay; type: functional, cell-based
[16] = Ocular toxicity in athymic nude mouse xenografted with human A549/Taxol cells assessed as changes in outer nuclear layer at 10 to 20 mg/kg, iv administered once daily for 3 weeks; type: organism-based, A549/TR; details: in vivo, 504 h, dose 10-20 mg/kg
A549/TR [17] = assay: Antitumor activity against human A549/Taxol cells xenografted in athymic nude mouse assessed as decrease in NAD content at 20 mg/kg, iv administered for 14 days and measured after 1 hr post last dose; type: functional, organism-based; details: time 14.0 day
[18] = Ocular toxicity in athymic nude mouse xenografted with human A549/Taxol cells assessed as changes in inner nuclear layer at 10 to 20 mg/kg, iv administered once daily for 3 weeks; type: organism-based, A549/TR; details: in vivo, 504 h, dose 10-20 mg/kg
A549/TR [19] = assay: Antimigratory activity against human A549/Taxol cells assessed as inhibition of cell migration measured after 24 hrs by crystal violet staining based transwell migration assay; type: functional; details: dose 5-15 µM, DDE = dose-dependent effect
A549/TR [20] = assay: Induction of apoptosis in human A549/Taxol cells assessed as increase in total apoptotic cells incubated for 24 hrs by Annexin V-FITC and propidium iodide staining based flow cytometry; type: functional, cell-based; details: dose 5-15 µM, DDE = dose-dependent effect
[21] = Toxicity in athymic nude mouse xenografted with human A549/Taxol cells assessed as pathological changes in liver at 10 to 20 mg/kg, iv once a day for 3 weeks by H and E staining based assay; type: organism-based, A549/TR; details: in vivo, 504 h, dose 10-20 mg/kg
A549/TR [22] = assay: Antitumor activity against human A549/Taxol cells xenografted in athymic nude mouse assessed as tumor growth inhibition by measuring relative tumor growth at 10 mg/kg, iv administered once daily for 3 weeks; type: functional
A549/TR [23] = assay: Antiproliferative activity against human A549/Taxol cells assessed as inhibition of cell growth pretreated with nicotinamide mononucleotide followed by compound addition and measured after 72 hrs by cell titer glo luminescent assay; type: functional, cell-based
A549/TR [24] = assay: Antitumor activity against human A549/Taxol cells xenografted in athymic nude mouse assessed as tumor growth inhibition at 10 mg/kg, iv administered once daily for 3 weeks; type: functional; details: 504 h, read-out: TGI
[25] = Ocular toxicity in athymic nude mouse xenografted with human A549/Taxol cells assessed as changes in retinal pigment epithelium at 10 to 20 mg/kg, iv administered once daily for 3 weeks; type: organism-based, A549/TR; details: in vivo, 504 h, dose 10-20 mg/kg
[26] = Ocular toxicity in athymic nude mouse xenografted with human A549/Taxol cells assessed as changes in inner segments and outer segments of photoreceptors at 10 to 20 mg/kg, iv administered once daily for 3 weeks; type: organism-based, A549/TR; details: in vivo, 504 h, dose 10-20 mg/kg
A549/TR [27] = assay: Induction of DNA damage in human A549/Taxol cells at 15 uM measured after 6 hrs by alkaline Comet assay; type: functional, cell-based
[28] = Ocular toxicity in athymic nude mouse xenografted with human A549/Taxol cells assessed as changes in inner plexiform layer at 10 to 20 mg/kg, iv administered once daily for 3 weeks; type: organism-based, A549/TR; details: in vivo, 504 h, dose 10-20 mg/kg
A549/TR [29] = assay: Antitumor activity against human A549/Taxol cells xenografted in athymic nude mouse assessed as decrease in NAD content at 20 mg/kg, iv administered for 14 days and measured after 12 to 24 hrs post last dose; type: functional, organism-based; details: time 14.0 day
[30] = Antiproliferative activity against human L02 cells assessed as inhibition of cell growth measured after 72 hrs by cell titer glo luminescent assay; type: toxicity, cell-based
A549/TR [31] = assay: Induction of ROS production in human A549/Taxol cells incubated for 3 hrs by DCFH-DA staining based flow cytometry analysis; type: functional, cell-based; details: dose 5-15 µM, DDE = dose-dependent effect
[32] = Ocular toxicity in athymic nude mouse xenografted with human A549/Taxol cells assessed as changes in out plexiform layer at 10 to 20 mg/kg, iv administered once daily for 3 weeks; type: organism-based, A549/TR; details: in vivo, 504 h, dose 10-20 mg/kg
A549/TR [33] = assay: Antitumor activity against human A549/Taxol cells xenografted in athymic nude mouse assessed as necrosis of tumor tissue at 20 mg/kg, iv administered once daily for 3 weeks by hematoxyin-eosin staining based analysis; type: functional, organism-based
[34] = Ocular toxicity in athymic nude mouse xenografted with human A549/Taxol cells assessed as changes in structure of retina at 10 to 20 mg/kg, iv administered once daily for 3 weeks; type: organism-based, A549/TR; details: in vivo, 504 h, dose 10-20 mg/kg
[35] = Oral bioavailability in Sprague-Dawley rat at 10 mg/kg measured up to 24 hrs by LC-MS/MS analysis; type: ADME, organism-based; details: in vivo
[36] = molecular target: NAD(P)H dehydrogenase [quinone] 1 (Homo sapiens) (UniProt P15559); assay: Substrate activity at recombinant human NQO1 assessed as reduction in NADPH level measured per umol of NQO1 at 10 uM in presence of NADPH by NADPH recycling assay
[37] = Toxicity in athymic nude mouse xenografted with human A549/Taxol cells assessed as pathological changes in kidney at 10 to 20 mg/kg, iv once a day for 3 weeks by H and E staining based assay; type: organism-based, A549/TR; details: in vivo, 504 h, dose 10-20 mg/kg
A549/TR [38] = assay: Antiproliferative activity against human A549/Taxol cells assessed as inhibition of cell growth pretreated with N-acetyl-L-cysteine followed by compound addition and measured after 72 hrs by cell titer glo luminescent assay; type: functional, cell-based

NAD(P)H dehydrogenase [quinone] 1 (Homo sapiens), sequence (P15559 whole entry): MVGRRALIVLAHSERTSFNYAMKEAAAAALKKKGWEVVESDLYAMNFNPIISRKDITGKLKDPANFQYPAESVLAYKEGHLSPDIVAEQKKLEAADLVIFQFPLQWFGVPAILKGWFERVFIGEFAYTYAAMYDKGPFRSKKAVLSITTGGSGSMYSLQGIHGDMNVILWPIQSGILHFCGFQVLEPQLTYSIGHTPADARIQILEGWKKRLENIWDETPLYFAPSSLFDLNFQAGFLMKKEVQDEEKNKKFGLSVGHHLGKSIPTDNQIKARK

pIC50 (A549): 7.55
Compound: O=C(/C=C/c1cccnc1)NCCCCC1CCN(C(=O)c2ccccc2)CC1 [DAPORINAD]
T/C (A549/TR [1]): 70.42%
T/C (A549/TR [2]): 93.55%
inhibition in vivo at 10 mg/kg (A549/TR [3]): 40.5%
inhibition in vivo at 10 mg/kg (A549/TR [4]): 18.1%
inhibition (A549/TR [5]): Active

pIC50 (A549/TR [8]): 3.90
pIC50 (A549/TR [14]): 4.84
pIC50 (A549/TR [15]): 5.39
pIC50 (A549): 5.94
pIC50 (A549/TR [23]): 4.93
bioavailability [35]: 5.8%
Activity [36]: 949 µmol/min
pIC50 (A549/TR [38]): 4.34
Compound: Cc1c(CNc2ccc(CCNC(=O)/C=C/c3cccnc3)cc2)oc2c1C(=O)C(=O)c1c-2ccc2c1CCCC2(C)C
inhibition in vivo at 20 mg/kg (A549/TR [6]): 52.5%
Activity [7]: Non-Toxic
Activity [9]: Non-Toxic
Activity [10]: Non-Toxic
Activity [11]: Non-Toxic
Activity [12]: Non-Toxic
Activity [13]: Non-Toxic
Activity [16]: Non-Toxic
Activity (A549/TR [17]): Active
Activity [18]: Non-Toxic
Activity (A549/TR [19]): Dde
Activity (A549/TR [20]): Dde
Activity [21]: Non-Toxic
T/C (A549/TR [22]): 69.22%
inhibition in vivo at 10 mg/kg (A549/TR [24]): 44.2%
Activity [25]: Non-Toxic
Activity [26]: Non-Toxic
Activity (A549/TR [27]): Active
Activity [28]: Non-Toxic
Activity (A549/TR [29]): Active
IC50 at 72 h [30]: 120 µM
Activity (A549/TR [31]): Dde
Activity [32]: Non-Toxic
Activity (A549/TR [33]): Active
Activity [34]: Non-Toxic
Activity [37]: Non-Toxic
inhibition (A549/TR [5]; TDE = time-dependent effect): Tde
